Data taken from publication PMC8550792, “Evolution of kinase polypharmacology across HSP90 drug discovery” (Cell Chemical Biology, 2021).

Legend:
Assay in all cases: biochemical
Type in all cases: biochemical
382 unique human kinases [1] = molecular target: T1, 382 unique human kinases (Homo sapiens, UniProt Q15375); conditions: kinase EPHA7, compound 10 uM; for remaining activity at 10 µM: read-out: % Enzyme Activity (relative to DMSO controls)
T1 construct: purchased Reaction Biology (HotSpot contract assay)
T1 sequence (Q15375 28-998): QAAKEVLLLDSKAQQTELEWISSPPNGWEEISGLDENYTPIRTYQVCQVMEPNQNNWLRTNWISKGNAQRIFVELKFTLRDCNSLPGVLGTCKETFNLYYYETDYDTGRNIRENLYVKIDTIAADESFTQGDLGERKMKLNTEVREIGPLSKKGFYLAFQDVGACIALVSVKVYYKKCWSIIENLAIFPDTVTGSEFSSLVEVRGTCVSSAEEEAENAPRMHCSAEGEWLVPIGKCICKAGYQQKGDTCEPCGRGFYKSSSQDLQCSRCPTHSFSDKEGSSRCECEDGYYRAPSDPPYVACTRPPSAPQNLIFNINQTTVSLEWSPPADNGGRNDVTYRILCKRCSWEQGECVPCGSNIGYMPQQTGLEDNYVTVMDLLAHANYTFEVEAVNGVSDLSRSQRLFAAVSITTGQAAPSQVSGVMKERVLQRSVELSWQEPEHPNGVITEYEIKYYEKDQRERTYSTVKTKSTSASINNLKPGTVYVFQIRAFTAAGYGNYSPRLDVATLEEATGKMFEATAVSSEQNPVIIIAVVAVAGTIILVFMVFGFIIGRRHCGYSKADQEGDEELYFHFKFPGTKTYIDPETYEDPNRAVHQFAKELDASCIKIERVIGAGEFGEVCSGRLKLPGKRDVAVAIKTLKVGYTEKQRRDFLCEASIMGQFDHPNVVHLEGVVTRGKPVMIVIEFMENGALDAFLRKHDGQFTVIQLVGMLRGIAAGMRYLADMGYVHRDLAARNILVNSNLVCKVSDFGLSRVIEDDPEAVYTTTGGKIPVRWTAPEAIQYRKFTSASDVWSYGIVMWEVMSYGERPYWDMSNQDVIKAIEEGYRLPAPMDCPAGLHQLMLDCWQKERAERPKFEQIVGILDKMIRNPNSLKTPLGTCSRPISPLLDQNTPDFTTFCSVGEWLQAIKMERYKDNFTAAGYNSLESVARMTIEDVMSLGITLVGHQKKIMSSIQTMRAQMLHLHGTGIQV

382 unique human kinases [2] = molecular target: T2, 382 unique human kinases (Homo sapiens, UniProt Q04771, R206H); conditions: ALK2 (R206H), compound at 10 uM, duplicate values; for remaining activity at 10 µM: read-out: % Enzyme Activity (relative to DMSO controls)
T2 construct: purchased Reaction Biology (HotSpot contract assay)
T2 sequence (Q04771 21-509 R206H): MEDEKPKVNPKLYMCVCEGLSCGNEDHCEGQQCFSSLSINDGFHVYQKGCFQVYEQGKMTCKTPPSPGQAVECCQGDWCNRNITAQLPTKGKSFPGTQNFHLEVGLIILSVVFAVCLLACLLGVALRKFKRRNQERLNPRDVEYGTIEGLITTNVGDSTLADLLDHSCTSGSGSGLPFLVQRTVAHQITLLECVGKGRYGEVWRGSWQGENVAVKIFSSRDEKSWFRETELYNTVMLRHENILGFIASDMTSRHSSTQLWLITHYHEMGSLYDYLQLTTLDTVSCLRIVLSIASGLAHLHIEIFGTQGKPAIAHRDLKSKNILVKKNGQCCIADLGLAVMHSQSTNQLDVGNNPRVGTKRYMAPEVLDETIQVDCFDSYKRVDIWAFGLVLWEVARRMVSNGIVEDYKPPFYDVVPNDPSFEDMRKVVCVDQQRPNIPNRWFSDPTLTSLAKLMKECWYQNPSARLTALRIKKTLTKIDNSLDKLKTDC

382 unique human kinases [3] = molecular target: T3, 382 unique human kinases (Homo sapiens, UniProt Q06187, P190K); conditions: BTK (P190K), 10 uM; for remaining activity at 10 µM: read-out: % Enzyme Activity (relative to DMSO controls)
T3 construct: purchased Reaction Biology (HotSpot contract assay)
T3 sequence (Q06187 whole entry P190K): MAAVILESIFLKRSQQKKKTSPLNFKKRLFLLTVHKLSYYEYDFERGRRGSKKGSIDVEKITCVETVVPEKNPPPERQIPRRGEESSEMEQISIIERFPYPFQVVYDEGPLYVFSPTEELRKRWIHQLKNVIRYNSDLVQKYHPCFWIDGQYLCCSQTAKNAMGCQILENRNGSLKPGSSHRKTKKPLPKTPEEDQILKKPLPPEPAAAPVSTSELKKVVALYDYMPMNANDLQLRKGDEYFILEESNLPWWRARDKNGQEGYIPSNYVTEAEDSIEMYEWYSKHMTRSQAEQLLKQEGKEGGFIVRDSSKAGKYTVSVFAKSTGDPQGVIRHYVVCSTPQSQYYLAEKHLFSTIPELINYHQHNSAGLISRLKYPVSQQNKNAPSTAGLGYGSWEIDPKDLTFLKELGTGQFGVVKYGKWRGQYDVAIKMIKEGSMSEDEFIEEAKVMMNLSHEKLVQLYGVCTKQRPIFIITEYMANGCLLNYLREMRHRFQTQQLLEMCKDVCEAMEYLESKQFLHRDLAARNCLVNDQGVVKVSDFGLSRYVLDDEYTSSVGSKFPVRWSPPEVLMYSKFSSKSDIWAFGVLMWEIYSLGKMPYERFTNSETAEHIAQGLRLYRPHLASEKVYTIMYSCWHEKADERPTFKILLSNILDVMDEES

382 unique human kinases [4] = molecular target: T4, 382 unique human kinases (Homo sapiens, UniProt Q13882); conditions: BRK, 10 uM; for remaining activity at 10 µM: read-out: % Enzyme Activity (relative to DMSO controls)
T4 construct: purchased Reaction Biology (HotSpot contract assay)
T4 sequence (Q13882 whole entry): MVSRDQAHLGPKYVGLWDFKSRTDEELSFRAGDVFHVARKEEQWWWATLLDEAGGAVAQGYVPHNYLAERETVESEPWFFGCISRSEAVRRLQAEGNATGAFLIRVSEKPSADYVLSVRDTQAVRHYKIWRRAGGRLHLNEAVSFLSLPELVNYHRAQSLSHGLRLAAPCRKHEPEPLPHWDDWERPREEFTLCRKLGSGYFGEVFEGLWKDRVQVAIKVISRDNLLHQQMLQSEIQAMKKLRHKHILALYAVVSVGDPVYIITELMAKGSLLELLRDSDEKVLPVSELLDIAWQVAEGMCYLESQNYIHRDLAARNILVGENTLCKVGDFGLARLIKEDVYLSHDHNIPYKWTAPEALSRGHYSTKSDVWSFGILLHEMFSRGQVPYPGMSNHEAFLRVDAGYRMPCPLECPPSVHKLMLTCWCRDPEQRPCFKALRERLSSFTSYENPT

382 unique human kinases [5] = molecular target: T5, 382 unique human kinases (Homo sapiens, UniProt Q8TF76); conditions: Haspin, 10 uM; for remaining activity at 10 µM: read-out: % Enzyme Activity (relative to DMSO controls)
T5 construct: purchased Reaction Biology (HotSpot contract assay)
T5 sequence (Q8TF76 1-798): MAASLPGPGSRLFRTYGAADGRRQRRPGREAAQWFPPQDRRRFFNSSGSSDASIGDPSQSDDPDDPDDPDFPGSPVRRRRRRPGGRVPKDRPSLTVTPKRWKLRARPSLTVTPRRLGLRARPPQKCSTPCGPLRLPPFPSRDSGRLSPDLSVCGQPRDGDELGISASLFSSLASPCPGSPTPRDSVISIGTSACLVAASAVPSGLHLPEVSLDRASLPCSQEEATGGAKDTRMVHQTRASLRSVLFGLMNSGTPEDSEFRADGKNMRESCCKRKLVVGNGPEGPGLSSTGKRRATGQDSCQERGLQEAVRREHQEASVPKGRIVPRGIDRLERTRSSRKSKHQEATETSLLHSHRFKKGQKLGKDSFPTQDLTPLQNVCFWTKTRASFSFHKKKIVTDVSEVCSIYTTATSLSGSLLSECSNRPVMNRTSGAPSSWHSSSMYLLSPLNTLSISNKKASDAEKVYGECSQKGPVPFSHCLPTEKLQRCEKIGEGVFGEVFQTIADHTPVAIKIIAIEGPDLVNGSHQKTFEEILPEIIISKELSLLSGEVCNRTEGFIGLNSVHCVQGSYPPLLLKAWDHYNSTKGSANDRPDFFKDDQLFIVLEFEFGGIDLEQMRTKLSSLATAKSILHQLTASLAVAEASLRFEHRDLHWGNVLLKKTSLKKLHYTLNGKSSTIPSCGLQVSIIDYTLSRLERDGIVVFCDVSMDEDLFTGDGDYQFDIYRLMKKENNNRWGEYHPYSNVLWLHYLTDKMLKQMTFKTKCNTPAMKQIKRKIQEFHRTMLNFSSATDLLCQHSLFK

382 unique human kinases [6] = molecular target: T6, 382 unique human kinases (Homo sapiens, UniProt P22455, N535K); conditions: FGFR4 (N535K), 10 uM; for remaining activity at 10 µM: read-out: % Enzyme Activity (relative to DMSO controls)
T6 construct: purchased Reaction Biology (HotSpot contract assay)
T6 sequence (P22455 22-802 N535K): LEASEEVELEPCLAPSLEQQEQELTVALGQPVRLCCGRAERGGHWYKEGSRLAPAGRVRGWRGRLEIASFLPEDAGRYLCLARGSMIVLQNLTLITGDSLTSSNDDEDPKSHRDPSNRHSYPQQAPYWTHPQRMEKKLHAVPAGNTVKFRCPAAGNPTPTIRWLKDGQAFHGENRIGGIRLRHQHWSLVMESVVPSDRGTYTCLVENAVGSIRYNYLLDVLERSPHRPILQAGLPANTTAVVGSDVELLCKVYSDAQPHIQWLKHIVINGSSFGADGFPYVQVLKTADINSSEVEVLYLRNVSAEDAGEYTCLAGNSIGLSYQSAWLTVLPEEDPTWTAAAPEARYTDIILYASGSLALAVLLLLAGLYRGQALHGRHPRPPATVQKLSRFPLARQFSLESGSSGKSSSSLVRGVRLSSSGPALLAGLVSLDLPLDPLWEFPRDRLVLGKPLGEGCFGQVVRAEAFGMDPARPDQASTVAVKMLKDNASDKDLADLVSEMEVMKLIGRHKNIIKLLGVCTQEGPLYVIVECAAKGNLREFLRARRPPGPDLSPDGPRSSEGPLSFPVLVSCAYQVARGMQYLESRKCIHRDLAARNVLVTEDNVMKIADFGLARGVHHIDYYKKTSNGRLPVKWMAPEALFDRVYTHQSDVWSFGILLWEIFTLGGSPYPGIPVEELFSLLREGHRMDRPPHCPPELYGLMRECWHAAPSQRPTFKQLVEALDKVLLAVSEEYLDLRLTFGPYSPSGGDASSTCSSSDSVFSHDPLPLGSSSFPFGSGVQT

382 unique human kinases [7] = molecular target: T7, 382 unique human kinases (Homo sapiens, UniProt Q8IVT5); conditions: KSR1, 10 uM; for remaining activity at 10 µM: read-out: % Enzyme Activity (relative to DMSO controls)
T7 construct: purchased Reaction Biology (HotSpot contract assay)
T7 sequence (Q8IVT5 1-923): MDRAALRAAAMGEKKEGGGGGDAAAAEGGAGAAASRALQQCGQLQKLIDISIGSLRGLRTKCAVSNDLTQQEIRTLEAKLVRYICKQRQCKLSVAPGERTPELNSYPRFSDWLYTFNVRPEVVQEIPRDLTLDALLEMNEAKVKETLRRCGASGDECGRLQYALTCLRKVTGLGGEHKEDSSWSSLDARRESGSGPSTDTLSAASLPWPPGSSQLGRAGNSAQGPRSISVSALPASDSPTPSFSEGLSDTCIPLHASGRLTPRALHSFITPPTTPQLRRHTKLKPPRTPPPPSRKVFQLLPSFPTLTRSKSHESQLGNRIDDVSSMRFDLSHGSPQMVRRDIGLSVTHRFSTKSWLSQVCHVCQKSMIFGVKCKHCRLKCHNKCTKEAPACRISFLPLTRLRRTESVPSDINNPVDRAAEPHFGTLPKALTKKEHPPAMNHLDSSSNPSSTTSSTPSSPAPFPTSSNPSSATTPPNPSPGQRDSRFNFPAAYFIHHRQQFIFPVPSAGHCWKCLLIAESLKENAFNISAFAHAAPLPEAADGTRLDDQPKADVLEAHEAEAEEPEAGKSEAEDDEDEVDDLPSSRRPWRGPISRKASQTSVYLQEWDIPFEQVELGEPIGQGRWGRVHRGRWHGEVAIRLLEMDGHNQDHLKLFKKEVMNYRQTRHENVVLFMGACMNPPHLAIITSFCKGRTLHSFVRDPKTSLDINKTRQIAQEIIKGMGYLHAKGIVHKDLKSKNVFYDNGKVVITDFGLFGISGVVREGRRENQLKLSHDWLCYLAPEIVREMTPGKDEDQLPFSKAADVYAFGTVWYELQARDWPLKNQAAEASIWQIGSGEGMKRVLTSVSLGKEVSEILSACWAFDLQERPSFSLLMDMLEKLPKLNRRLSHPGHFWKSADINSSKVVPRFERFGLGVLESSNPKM

## CC(C)c1cc(-c2n[nH]c(=O)n2-c2ccc3c(ccn3C)c2)c(O)cc1O [Ganetespib (STA9090)]
382 unique human kinases [1]
  remaining activity at 10 µM: 86.7%
382 unique human kinases [2]
  remaining activity at 10 µM: 142%
382 unique human kinases [3]
  remaining activity at 10 µM: 62.1%
382 unique human kinases [4]
  remaining activity at 10 µM: 67.4%
382 unique human kinases [5]
  remaining activity at 10 µM: 75.3%

## CC(C)c1cc(-c2n[nH]c(=O)n2-c2ccc3c(ccn3C)c2)c(O)cc1O [Ganetespib]
382 unique human kinases [6]
  remaining activity at 10 µM: 101%
382 unique human kinases [7]
  remaining activity at 10 µM: 99.8%

## CCNC(=O)c1noc(-c2cc(C(C)C)c(O)cc2O)c1-c1ccc(CN2CCOCC2)cc1 [Luminespib]
382 unique human kinases [6]
  % Enzyme Activity (relative to DMSO controls): 97.33%
  remaining activity at 10 µM: 101%
382 unique human kinases [7]
  % Enzyme Activity (relative to DMSO controls): 97.63%
  remaining activity at 10 µM: 98.8%

## CCNC(=O)c1noc(-c2cc(C(C)C)c(O)cc2O)c1-c1ccc(CN2CCOCC2)cc1 [Luminespib (AUY-922)]
382 unique human kinases [1]
  % Enzyme Activity (relative to DMSO controls): 95.91%
  remaining activity at 10 µM: 97.9%
382 unique human kinases [2]
  % Enzyme Activity (relative to DMSO controls): 113.96%
  remaining activity at 10 µM: 114%
382 unique human kinases [3]
  % Enzyme Activity (relative to DMSO controls): 61.43%
  remaining activity at 10 µM: 61.9%
382 unique human kinases [4]
  % Enzyme Activity (relative to DMSO controls): 83.67%
  remaining activity at 10 µM: 84.8%
382 unique human kinases [5]
  % Enzyme Activity (relative to DMSO controls): 89.64%
  remaining activity at 10 µM: 93%
